The source of these data is ChEMBL document CHEMBL4371002 (J Med Chem, 2018).

In series [1] the target is Peptidyl-prolyl cis-trans isomerase FKBP1A (Homo sapiens, UniProt P62942). The series can be described thus: biochemical. It counts as cell-based.
Series [2] concerns the target T1, 3-oxo-5-alpha-steroid 4-dehydrogenase 2 (Rattus norvegicus, UniProt P31214).
T1 sequence (P31214 whole entry): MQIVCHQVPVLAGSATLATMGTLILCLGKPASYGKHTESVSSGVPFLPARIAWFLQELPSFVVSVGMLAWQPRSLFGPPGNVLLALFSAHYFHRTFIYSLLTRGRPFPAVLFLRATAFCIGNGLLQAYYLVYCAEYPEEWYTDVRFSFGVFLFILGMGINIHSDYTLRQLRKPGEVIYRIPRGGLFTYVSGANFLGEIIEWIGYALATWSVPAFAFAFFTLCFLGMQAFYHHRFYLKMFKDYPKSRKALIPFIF

Series [3] addresses T2, 3-oxo-5-alpha-steroid 4-dehydrogenase 1 (Rattus norvegicus, UniProt P24008).
T2 sequence (P24008 whole entry): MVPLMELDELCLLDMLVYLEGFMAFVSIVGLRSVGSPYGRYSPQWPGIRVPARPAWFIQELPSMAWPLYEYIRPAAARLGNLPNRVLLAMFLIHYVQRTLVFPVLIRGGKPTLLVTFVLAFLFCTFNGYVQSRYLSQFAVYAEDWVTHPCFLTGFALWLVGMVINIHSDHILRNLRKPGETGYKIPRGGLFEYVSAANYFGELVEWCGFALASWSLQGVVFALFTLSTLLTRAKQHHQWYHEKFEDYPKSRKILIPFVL

Series [4] addresses T3, 3-oxo-5-alpha-steroid 4-dehydrogenase 1 (Homo sapiens, UniProt P18405).
T3 sequence (P18405 whole entry): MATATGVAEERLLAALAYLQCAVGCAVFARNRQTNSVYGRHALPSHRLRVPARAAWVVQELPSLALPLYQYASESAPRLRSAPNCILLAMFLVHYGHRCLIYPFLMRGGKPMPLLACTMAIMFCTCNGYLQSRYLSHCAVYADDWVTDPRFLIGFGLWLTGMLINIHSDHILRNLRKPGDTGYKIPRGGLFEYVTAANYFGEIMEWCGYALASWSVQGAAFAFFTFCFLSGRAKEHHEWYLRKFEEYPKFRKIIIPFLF

Series [5] addresses T3, 3-oxo-5-alpha-steroid 4-dehydrogenase 1. This is another data set of the same source.
Series [6] addresses Carbonic anhydrase 2 (Bos taurus, UniProt P00921).
Series [7] is described as follows: physchem.
Series [8] addresses T3, 3-oxo-5-alpha-steroid 4-dehydrogenase 1. Type of series: cell-based, HEK293.
Series [9] has as its target T4, 3-oxo-5-alpha-steroid 4-dehydrogenase 2 (Homo sapiens, UniProt P31213).
T4 sequence (P31213 whole entry): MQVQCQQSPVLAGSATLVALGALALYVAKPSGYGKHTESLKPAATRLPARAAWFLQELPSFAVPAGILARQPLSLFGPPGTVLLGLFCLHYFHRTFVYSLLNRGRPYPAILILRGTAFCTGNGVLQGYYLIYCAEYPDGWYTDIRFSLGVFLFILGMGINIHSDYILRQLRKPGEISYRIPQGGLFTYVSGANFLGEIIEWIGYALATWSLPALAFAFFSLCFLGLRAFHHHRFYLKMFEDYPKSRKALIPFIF

In series [10] the target is T4, 3-oxo-5-alpha-steroid 4-dehydrogenase 2. This is another data set of the same source.
Series [11] has as its system T47D. The series can be described thus: cells. Type of series: functional, cell-based. Particulars: Homo sapiens.
The target of series [12] is T4, 3-oxo-5-alpha-steroid 4-dehydrogenase 2. It counts as cell-based, HEK293.
Series [13] deals with Delta-type opioid receptor (Homo sapiens, UniProt P41143).
Chain of Delta-type opioid receptor (P41143 whole entry): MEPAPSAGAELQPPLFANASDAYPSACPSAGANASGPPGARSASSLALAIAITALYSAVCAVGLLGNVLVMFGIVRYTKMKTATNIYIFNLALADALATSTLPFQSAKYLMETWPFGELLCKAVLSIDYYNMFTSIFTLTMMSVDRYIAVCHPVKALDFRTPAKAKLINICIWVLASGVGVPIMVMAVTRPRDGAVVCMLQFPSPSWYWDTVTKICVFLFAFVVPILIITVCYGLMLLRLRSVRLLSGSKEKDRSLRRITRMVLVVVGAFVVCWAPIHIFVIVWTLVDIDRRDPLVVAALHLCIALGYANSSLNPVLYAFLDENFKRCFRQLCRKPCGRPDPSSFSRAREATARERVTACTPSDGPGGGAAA
Series [14] can be described thus: physchem. The conditions noted are these: buffer, pH 7.4.
The target in series [15] is T5, Steryl-sulfatase (Homo sapiens, UniProt P08842).
T5 sequence (P08842 whole entry): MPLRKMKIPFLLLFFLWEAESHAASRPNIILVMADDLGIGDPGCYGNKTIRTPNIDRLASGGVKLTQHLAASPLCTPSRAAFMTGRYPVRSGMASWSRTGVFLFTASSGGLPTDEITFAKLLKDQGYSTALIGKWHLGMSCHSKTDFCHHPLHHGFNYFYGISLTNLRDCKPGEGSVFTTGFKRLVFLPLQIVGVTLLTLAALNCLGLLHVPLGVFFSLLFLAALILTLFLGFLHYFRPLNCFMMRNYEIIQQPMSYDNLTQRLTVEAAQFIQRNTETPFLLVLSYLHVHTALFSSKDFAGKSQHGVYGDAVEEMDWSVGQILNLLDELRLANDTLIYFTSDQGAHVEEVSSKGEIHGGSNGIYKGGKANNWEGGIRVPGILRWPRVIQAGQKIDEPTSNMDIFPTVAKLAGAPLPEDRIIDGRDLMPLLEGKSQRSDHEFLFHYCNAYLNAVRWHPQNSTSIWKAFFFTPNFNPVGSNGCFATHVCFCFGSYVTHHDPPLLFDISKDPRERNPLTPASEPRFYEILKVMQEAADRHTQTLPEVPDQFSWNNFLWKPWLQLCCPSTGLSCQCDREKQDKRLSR

The target of series [16] is T5, Steryl-sulfatase. The source holds these as a separate data set.
Series [17] is described as follows: in vitro. Particulars: plasma.
Series [18] concerns the target Tyrosine-protein phosphatase non-receptor type 1 (Homo sapiens, UniProt P18031). Type of series: cell-based, Sf9.

Chain of Carbonic anhydrase 2 (P00921 whole entry): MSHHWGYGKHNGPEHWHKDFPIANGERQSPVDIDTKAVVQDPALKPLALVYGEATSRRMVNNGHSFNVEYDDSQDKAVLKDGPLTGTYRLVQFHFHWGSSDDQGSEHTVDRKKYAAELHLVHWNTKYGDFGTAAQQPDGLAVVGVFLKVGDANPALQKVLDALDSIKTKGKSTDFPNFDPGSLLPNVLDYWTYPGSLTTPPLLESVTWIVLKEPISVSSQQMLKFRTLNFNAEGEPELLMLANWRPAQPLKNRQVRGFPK
Chain of Peptidyl-prolyl cis-trans isomerase FKBP1A (P62942 whole entry): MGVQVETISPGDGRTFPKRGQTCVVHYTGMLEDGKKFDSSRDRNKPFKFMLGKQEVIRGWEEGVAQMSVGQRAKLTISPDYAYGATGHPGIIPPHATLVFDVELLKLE
Chain of Tyrosine-protein phosphatase non-receptor type 1 (P18031 whole entry): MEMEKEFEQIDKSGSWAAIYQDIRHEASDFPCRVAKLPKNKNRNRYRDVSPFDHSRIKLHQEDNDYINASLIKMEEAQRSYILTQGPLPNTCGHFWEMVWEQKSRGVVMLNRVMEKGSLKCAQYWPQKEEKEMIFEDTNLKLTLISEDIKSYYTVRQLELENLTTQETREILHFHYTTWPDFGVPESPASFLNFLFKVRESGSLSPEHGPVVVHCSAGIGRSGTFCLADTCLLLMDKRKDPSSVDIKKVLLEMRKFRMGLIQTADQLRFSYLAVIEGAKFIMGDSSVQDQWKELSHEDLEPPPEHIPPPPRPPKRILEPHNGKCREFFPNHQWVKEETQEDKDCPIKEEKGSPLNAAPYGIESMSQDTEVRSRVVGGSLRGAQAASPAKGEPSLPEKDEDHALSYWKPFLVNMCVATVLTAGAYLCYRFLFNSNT

With `COc1cc(C(=O)C(=O)N2CCC[C@H]2C(=O)OCCCc2cccnc2)cc(OC)c1OC`, the Ki in series [1] was determined as 4 µM.

In the case of `C[C@]12C=CC(=O)N[C@@H]1CC[C@@H]1[C@@H]2CC[C@]2(C)[C@@H](C(=O)NC(c3ccccc3)(C(F)(F)F)C(F)(F)F)CC[C@@H]12`, the IC50 in series [2] came to 34 nM; in series [3], 34 nM; in series [4], 20 nM; in [5] it was 3.9 nM.

`NS(=O)(=O)C(F)(F)c1ccccc1` [PHENYLDIFLUOROMETHANESULFONAMIDE] registered an IC50 in series [6] of 58 nM. Further, in series [7], the pKa was determined as 7.7.

Take `CC(C)(C)NC(=O)[C@H]1CC[C@H]2[C@@H]3CC[C@H]4NC(=O)C=C[C@]4(C)[C@H]3CC[C@]12C` [FINASTERIDE]: the IC50 is 650 nM in [8]; 32 nM in series [2]; 30 nM in series [3]; 150 to 470 nM in series [5]; 0.18 to 11.3 nM in series [9]; 58 nM in series [10].

`O=C1Nc2ccc(S(F)(F)(F)(F)F)cc2/C1=C/c1ccc[nH]1` came in with an EC50 in [11] of 490 nM.

Regarding `CC(C)(C)NC(=O)[C@H]1CC[C@H]2[C@@H]3CC=C4C=C(F)CC[C@]4(C)[C@H]3CC[C@]12C`, the figures for the IC50 in series [8] and in [12] were 1300 nM and 480 nM, respectively.

For the molecule `CC(NC(=O)[C@H]1CC[C@H]2[C@@H]3CC[C@H]4NC(=O)C=C[C@]4(C)[C@H]3CC[C@]12C)(c1ccccc1)C(F)(F)F` (stereo partly drawn), the IC50 in series [2] worked out at 15 nM; in [3], 15 nM; in series [4] it was 16 nM; in series [5], 36 nM.

`CC(C)C[C@H](NC(=O)[C@@H](/C=C(\F)CNC(=O)CNC(=O)[C@@H](N)Cc1ccc(O)cc1)Cc1ccccc1)C(=O)O`: affinity in series [13] was put at a Ki of 43 nM. The molecule also gave a logD in series [14] of -0.11.

In [6], `NS(=O)(=O)C(F)c1ccccc1` (stereo not drawn) showed an IC50 of 220 nM. The pKa in [7] was 8.8.

With `C[C@]12CC[C@@H]3c4ccc(C(F)(F)S(=O)(=O)O)cc4CC[C@H]3[C@@H]1CCC2=O`, the results for the Ki in [15] and in [16] were 73 µM and 147 µM, respectively.

On to `C[C@]12CC[C@@H]3c4ccc(C(F)(F)S(N)(=O)=O)cc4CC[C@H]3[C@@H]1CCC2=O`, for which the figures for the inhibition constant Ki in [15] and in [16] were 82 µM and 28 µM, respectively.

For the molecule `Cc1cn2c(C(=O)NCc3ccc(C(F)(F)F)cc3)c(C)nc2s1`, in series [17], the fraction unbound was 0.009.

In series [17], `Cc1cn2c(C(=O)NCc3ccc(S(F)(F)(F)(F)F)cc3)c(C)nc2s1` gave a fraction unbound of 0.003.

`O=C(c1ccccc1)C(Cc1ccc(C(F)(F)P(=O)(O)O)c(Br)c1)c1ccccc1` (stereo not drawn) showed an EC50 in [18] of 1200 nM.

Regarding `C[C@]12C=CC(=O)N[C@@H]1CC[C@@H]1[C@@H]2CC[C@]2(C)[C@@H](C(=O)Nc3cc(C(F)(F)F)ccc3C(F)(F)F)CC[C@@H]12` [DUTASTERIDE], the values for the IC50 in series [5] and in series [9] were 4 nM and less than 0.1 nM, respectively.

`CC(C)C[C@H](NC(=O)[C@@H](/C=C/CNC(=O)CNC(=O)[C@@H](N)Cc1ccc(O)cc1)Cc1ccccc1)C(=O)O` returned a Ki in series [13] of 587 nM. The logD in series [14] was -0.07.

`NS(=O)(=O)Cc1ccccc1` [PHENYLMETHANESULFONAMIDE] returned an IC50 in series [6] of 630 nM. In series [7], this molecule showed a pKa of 10.5.

For `O=C1Nc2cc(S(F)(F)(F)(F)F)ccc2/C1=C/c1ccc[nH]1`, the EC50 in series [11] was 350 nM.

In general, Ki refers to a measure of affinity in units of concentration, obtained from inhibition or displacement. A word on the IC50: it is the concentration needed to halve the response being measured. A higher IC50 goes with lower potency. Broadly, the pKa is the pH at which an ionisable group is half protonated. Higher therefore signals a group that holds its proton tightly. The term EC50 denotes the concentration needed to bring the measured effect to its halfway point. High values mean weaker potency, low ones greater potency. A word on the logD: it is the decadic logarithm of the distribution of all forms, ionised or not, between an organic phase and buffer at a given pH. A high value points to a more lipophilic compound. In general, fraction unbound refers to free concentration divided by total concentration.
